Data from patent US20240261274A1, “TREATMENT OF MYC-DRIVEN CANCERS WITH GSPT1 DEGRADERS” (MONTE ROSA THERAPEUTICS, INC., priority 2021, published 2024).
Blank lines part the entries; values can stand above or below the molecule they belong to.

Key:
[1] = tested on: cells with wildtype (WT) cereblon; assay: Viability in cells with wildtype cereblon; type: cell-based
From the text: X-axis axis represents m concentration of compound 8; y-axis represents viability normalized to DMSO.

[2] = tested on: Human mammary epithelial cells, or HMECs, overexpressing c-Myc in a doxycycline-inducible manner; assay: Viability of HMECs with doxycycline-inducible c-Myc overexpression; type: cell-based; conditions: for induction of cell death: highest concentration tested 30 μM
From the text: X-axis represents m concentration of compound 8; y-axis represents viability normalized to DMSO.

GSPT1 [3] = target: T1, GSPT1 (Homo sapiens, UniProt P15170+Q96SW2); assay: GSPT1 levels in tumors, PD analysis by western blotting (compound 8); type: in vivo, mice; parameters: from tissue; host or cells: NCI-H1155 subcutaneous xenograft tumours from BALB/c nude mice; conditions: 75 mg/kg and 37 mg/kg, respectively; 24 hr post third dose
Method: For the PD analysis, tumors were harvested 24 hr post third dose and GSPT1 total levels in tumors were determined by western blotting analysis. GADPH levels were measured as control Briefly, 30-50 mg of tumor was placed in 350 μL of RIPA buffer containing 1% Protease Inhibitor Cocktail and 1% Phosphatase Inhibitor Cocktail 2. Tumors were grinded using the Tissuelyser LT at 50 Hz for 5 min. the tissue lysates were kept on ice for 30 min, centrifuged at 12,000 rpm at 4° C. for 10 min and protein concentration measured using the Pierce™ BCA Protein Assay Kit as recommended by the manufacturer. Samples were diluted to the same final concentration (at 4 μg/μL) using RIPA buffer plus 4×LDS Sample Buffer and 10× Sample Reducing Agent and subsequently heat denatured at 100° C. for 10 min. Western blot analysis was performed using 5 μL per slot for each sample, loaded on a NuPAGE® 4-12% Bis-Tris gel, probing for GSPT1 (Sigma-HPA052488; 1/250 dilution) and GAPDH as loading control (CST-5174; 1/2000 dilution).

[4] = tested on: human cell line NCI-H1770 xenograft; assay: N-Myc-driven mouse xenograft model, NCI-H1770, compound 210 oral; type: in vivo
[5] = tested on: NCI-H1155 xenograft (human non small cell lung cancer); assay: NCI-H1155 xenograft efficacy study (compound 210); type: in vivo, BALB/c nude mice
Method: For the NCI-H1155 xenograft study, cells (human non small cell lung cancer, ATCC CRL-5818) were maintained in vitro as suspension culture in ATCC-formulated DMEM:F12 Medium supplemented as recommended by the provider and kept at 37° C. in an atmosphere of 5% CO2 in air. Cells (0.5 million) were resuspended in 0.2 mL of PBS with Matrigel (50:50) and inoculated into female BALB/c nude mice, 6-8 weeks old, and allowed to grow to 150 mm^3 in size. Mice were dosed orally with either vehicle or compound 210 at 1 or 3 mg per kilogram daily (filled squares and filled triangles, respectively) or 6 mg per kilogram for 5 continuous days followed by 9 days treatment holidays (5 On-9 off) (filled inverted triangles). Compound formulations were prepared fresh daily in 5% vDMSO/95% (30% w/v HP-β-CD in water). Gemcitabine dosed at 40 mg per kilogram, IP, Q4D×5 was used as a positive control (filled rhombi). For this study, mice were dosed for 21 days with tumor volumes measured every 3 days.

GSPT1 [6] = target: T1, GSPT1; assay: GSPT1 levels in NCI-H1155 tumors by western blotting (compound 210); type: in vivo, mice; parameters: from tissue; host or cells: NCI-H1155 subcutaneous xenograft tumours from BALB/c nude mice; conditions: all three dose levels, 6 hours after the third dose
Method: GSPT1 levels in tumors were determined by western blotting 6 hours after the third dose. Western blotting was performed as described previously using GAPDH as loading control.

[7] = tested on: NSCLC patient derived xenografts; assay: Patient derived NSCLC xenograft models (PDX), tumor progression free probability; type: in vivo, immunodeficient mice; conditions: high L-Myc or N-Myc expressing PDX models, oral 10 mg/kg daily, progression >800 mm^3
Method: Patient derived NSCLC xenograft models (PDX) were made using immunodeficient mice. 14 PDXs were made for high L-Myc or N-Myc expressing NSCLC samples and 19 PDXs were made for low L-Myc or N-Myc expressing NSCLC samples. Animals were divided into a treatment group that received an oral dose of 10 mg/kg Compound 345 daily and a vehicle-only control group. […] Data from these experiments are shown in FIG. 14A (high L-Myc or high N-Myc expressing) and FIG. 14B (low L-Myc or low N-Myc expressing). Tumor progression free probability was plotted over time, with a threshold of tumor progression set at greater than 800 mm^3.
We used log 2FPKM cutoff of 1.5 and 3.4 for N-Myc and L-Myc expression respectively. PDX tumor fragments (2-3 mm in diameter) were inoculated subcutaneously at the upper right dorsal flank of 6-8 weeks old female BALB7c or NODS/CID nude mice. […] Mice were PO dosed with vehicle or Compound 345 at 10 mg/kg daily and tumor volumes recorded at least twice a week. […] For each mouse, we calculated the first day the tumor volume reached 800 mm3 as the endpoint. […] Kaplan-Meier curves were generated in R (ver 4.0.2, survminer package) and log-rank (Mantel-Cox) test P-values were calculated using R (ver 4.0.2, survival package) to assess the differences in survival curves between the Compound 345-treated and vehicle treated samples. […]

T1 sequence (P15170 whole entry): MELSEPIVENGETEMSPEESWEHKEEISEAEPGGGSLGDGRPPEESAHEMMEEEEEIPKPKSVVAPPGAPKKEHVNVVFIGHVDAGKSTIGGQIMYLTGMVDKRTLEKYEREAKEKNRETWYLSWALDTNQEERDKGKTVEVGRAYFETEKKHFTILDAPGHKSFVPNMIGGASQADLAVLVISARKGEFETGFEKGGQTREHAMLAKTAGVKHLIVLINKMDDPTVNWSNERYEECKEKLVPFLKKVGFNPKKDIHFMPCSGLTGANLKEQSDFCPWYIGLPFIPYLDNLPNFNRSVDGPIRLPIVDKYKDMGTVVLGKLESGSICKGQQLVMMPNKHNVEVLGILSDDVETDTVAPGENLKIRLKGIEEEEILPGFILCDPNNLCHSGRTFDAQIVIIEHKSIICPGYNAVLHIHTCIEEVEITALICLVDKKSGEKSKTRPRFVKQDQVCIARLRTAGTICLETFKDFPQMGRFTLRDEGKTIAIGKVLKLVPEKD
T1 sequence (Q96SW2 whole entry): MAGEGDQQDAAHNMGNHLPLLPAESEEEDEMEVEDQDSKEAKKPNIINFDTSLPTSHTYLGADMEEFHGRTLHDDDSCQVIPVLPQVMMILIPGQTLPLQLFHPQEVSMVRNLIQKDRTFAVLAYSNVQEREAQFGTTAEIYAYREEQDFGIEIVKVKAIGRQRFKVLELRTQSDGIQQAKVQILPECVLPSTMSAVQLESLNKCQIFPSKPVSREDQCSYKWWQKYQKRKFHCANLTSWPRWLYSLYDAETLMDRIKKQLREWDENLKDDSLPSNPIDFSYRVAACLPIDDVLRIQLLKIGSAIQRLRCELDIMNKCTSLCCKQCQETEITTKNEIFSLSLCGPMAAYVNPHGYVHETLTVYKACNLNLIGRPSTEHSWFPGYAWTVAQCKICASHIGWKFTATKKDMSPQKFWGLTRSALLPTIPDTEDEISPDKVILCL
T1 sequence (Q16531 whole entry partner): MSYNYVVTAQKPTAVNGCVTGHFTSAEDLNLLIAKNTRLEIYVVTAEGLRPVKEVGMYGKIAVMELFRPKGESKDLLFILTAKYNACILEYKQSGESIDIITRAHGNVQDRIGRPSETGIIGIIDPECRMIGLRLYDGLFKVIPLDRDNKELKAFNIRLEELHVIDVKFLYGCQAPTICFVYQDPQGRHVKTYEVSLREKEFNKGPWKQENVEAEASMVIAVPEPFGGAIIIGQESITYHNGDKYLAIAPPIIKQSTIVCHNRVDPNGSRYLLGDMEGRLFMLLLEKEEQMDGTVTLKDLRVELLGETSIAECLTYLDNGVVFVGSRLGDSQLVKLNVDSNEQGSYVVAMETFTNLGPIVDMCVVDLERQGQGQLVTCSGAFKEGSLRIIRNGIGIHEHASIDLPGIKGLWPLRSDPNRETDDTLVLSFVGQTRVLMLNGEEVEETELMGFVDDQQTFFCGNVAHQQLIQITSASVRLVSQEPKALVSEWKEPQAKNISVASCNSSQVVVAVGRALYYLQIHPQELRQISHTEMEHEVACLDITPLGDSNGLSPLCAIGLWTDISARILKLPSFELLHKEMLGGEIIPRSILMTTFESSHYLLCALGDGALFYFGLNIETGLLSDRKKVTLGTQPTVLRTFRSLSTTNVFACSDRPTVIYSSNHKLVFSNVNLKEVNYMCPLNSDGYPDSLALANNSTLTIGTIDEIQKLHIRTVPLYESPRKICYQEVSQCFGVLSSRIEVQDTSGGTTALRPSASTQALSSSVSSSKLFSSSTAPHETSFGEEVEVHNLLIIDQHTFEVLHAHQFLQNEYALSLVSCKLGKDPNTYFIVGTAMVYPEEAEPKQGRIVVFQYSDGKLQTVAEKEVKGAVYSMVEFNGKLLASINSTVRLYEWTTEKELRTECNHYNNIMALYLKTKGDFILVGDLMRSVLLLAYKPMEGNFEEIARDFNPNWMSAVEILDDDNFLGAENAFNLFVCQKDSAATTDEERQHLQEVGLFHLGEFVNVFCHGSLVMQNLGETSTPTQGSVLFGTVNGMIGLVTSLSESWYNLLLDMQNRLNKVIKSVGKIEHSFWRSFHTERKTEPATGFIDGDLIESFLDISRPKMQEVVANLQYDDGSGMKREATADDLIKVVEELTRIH

GSPT1 levels in tumors (GSPT1 [3]): no or insignificant amounts of GSPT1
SMILES: Cc1ccc(NC(=O)NCc2ccc3c(c2)C(=O)N(C2CCC(=O)NC2=O)C3)cc1Cl (stereo not drawn) [Compound 8]
induction of death (viability normalized to DMSO) [1]: did induce death | EC50 ([2]; Homo sapiens, HMEC, presence of high c-Myc expression, read-out: EC50 of induced cell death (viability normalized to DMSO)): 640 nM | induction of cell death ([2]; absence of doxycycline-driven c-Myc expression): did not induce cell death | induction of cell death ([2]; after doxycycline was washed out to remove c-Myc expression): did not induce cell death

SMILES: Cc1ccc(NC(=O)OCc2ccc3c(c2)C(=O)N(C2CCC(=O)NC2=O)C3)cc1Cl (stereo not drawn) [Compound 210]
tumor size ([4]; 3 mg/kg once daily): tumor size decreased and remained so until the end of the study | tumor size ([4]; 6 mg/kg, five days on and nine days off): tumor size decreased and remained so until the end of the study | body weight ([4]; oral administration): no body weight loss observed | tumor growth ([4]; oral administration): tumor growth inhibition | body weight ([5]; oral administration, NCI-H1155 xenograft mice): no body weight loss observed | tumor growth ([5]; oral, 1 mg/kg once daily): tumor growth was suppressed for two weeks | tumor size ([5]; oral, 3 mg/kg once daily): tumor size decreased, became undetectable by day eight | tumor size ([5]; oral, 6 mg/kg five days on and nine days off): tumor size decreased, became undetectable by day eight | GSPT1 degradation in tumors (GSPT1 [6]): Complete degradation of GSPT1

SMILES: O=C1CCC(N2Cc3ccc(COC(=O)Nc4cc(OC(F)(F)F)ccc4F)cc3C2=O)C(=O)N1 (stereo not drawn) [Compound 345, (2-(2,6-dioxopiperidin-3-yl)-3-oxoisoindolin-5-yl)methyl(2-fluoro-5-(trifluoromethoxy)phenyl)carbamate]
tumor progression free probability [7]: significantly extended the probability that an animal remained tumor-free
